# Source: ChEMBL document CHEMBL1201862, “PubChem BioAssay data set” (2004)
# The source made the active and inactive calls.
# Key:
# [1] = NIH3T3 cell viability loss – ATP luminescence, mouse fibroblasts, counter-screen, dose response (AID 2010); type: functional, cell-based;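 also: cells exposed to compound for about 90 hours before reading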
# [2] = Trypanosoma cruzi growth suppression in host cells – NIH3T3 host cells, beta-gal luminescence, confirmation (AID 2044); type: functional, cell-based;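 also: intracellular parasites grown in NIH/3T3 mouse fibroblasts as host cells; luminescent beta-galactosidase reporter signal from transgenic T. cruzi replicating inside host cells; inhibitors lower the luminescence signal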
# [3] = target: Voltage-dependent T-type calcium channel subunit alpha-1H (Homo sapiens, UniProt O95180); type: functional;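 also: channel activity triggered by adding a high calcium stimulation buffer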
# [4] = target: Heat shock cognate 71 kDa protein (Homo sapiens, UniProt P11142); assay: In Vitro Hsc70 Dose Response Fluorescence Polarization Assay. [Related pubchem assays: 1072 ]
# [5] = target: Heat shock 70 kDa protein 1A (Homo sapiens, UniProt P0DMV8); assay: inhibition of Hsp70 binding activity – biochemical, fluorescence polarization, SAR follow-up (AID 1072)
# [6] = target: Tumor necrosis factor (Homo sapiens, UniProt P01375); assay: analog potency on TNFa NF-kB signaling – cell-based, revised, SAR follow-up (AID 2337); type: functional
# [7] = target: Nucleotide-binding oligomerization domain-containing protein 2 (Homo sapiens, UniProt Q9HC29); assay: PubChem AID 2334; type: functional
# [8] = target: T1, Nucleotide-binding oligomerization domain-containing protein 1 (Homo sapiens, UniProt Q9Y239); assay: blockers of NOD1 pathway activity – revised, SAR follow-up (AID 2333); type: functional
# T1 sequence (Q9Y239 whole entry): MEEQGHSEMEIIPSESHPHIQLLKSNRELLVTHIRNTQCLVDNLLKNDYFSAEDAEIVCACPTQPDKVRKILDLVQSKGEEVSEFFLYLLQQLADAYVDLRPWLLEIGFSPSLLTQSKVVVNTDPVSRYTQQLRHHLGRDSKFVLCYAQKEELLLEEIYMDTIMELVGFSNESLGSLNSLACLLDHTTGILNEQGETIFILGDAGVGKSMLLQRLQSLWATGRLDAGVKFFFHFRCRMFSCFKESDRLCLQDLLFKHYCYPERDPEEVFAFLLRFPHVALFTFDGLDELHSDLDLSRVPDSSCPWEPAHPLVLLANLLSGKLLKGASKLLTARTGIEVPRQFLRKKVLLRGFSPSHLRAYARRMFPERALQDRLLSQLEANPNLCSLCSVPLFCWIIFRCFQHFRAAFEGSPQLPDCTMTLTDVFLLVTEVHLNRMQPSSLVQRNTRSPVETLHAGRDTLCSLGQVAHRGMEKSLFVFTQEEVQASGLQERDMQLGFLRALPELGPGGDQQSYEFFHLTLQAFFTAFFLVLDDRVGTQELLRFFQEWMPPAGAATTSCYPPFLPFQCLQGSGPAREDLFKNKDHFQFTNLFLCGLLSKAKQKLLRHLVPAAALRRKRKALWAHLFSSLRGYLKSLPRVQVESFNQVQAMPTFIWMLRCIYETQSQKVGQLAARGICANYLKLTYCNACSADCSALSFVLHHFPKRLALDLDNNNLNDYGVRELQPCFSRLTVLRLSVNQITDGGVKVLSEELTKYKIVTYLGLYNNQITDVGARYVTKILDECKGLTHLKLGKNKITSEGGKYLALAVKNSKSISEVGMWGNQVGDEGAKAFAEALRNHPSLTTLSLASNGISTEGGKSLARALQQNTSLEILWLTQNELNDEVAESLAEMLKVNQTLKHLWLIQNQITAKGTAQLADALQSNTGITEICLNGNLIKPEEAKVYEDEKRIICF
# [9] = tested on: HEK293; assay: cells; conditions: Homo sapiens;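 also: cells exposed to compound for 14 hours overnight before viability readout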
# [10] = target: Troponin, cardiac muscle (Homo sapiens, UniProt P19429+P45379+P63316); assay: Fluorescence-based biochemical high throughput dose response assay for activators of the calcium sensitivity of cardiac Regulated Thin Filaments (RTF). [Related pubchem assays (depositor defined):AID493008, AID493018, AID504382, AID504383]; type: protein-complex assay
# [11] = target: T2, Polyadenylate-binding protein 1 (Homo sapiens, UniProt P11940); assay: MLLE binding blockers, Cy5 peptide tracer – biochemical, fluorescence polarization, Cy5-PAM2 peptide, secondary, miRNA deadenylation inhibitor project, dose response (AID 602260); type: functional; conditions: read-out: IC50_Mean
# [12] = target: T2, Polyadenylate-binding protein 1; assay: MLLE domain peptide-binding blockers, IC50 – biochemical, fluorescence polarization, FITC-PAM2 peptide, dose response (AID 602259); type: functional; conditions: read-out: IC50_Mean
# [13] = target: T3, Protein skinhead-1 (Caenorhabditis elegans, UniProt P34707); type: functional
# T3 sequence (P34707 whole entry): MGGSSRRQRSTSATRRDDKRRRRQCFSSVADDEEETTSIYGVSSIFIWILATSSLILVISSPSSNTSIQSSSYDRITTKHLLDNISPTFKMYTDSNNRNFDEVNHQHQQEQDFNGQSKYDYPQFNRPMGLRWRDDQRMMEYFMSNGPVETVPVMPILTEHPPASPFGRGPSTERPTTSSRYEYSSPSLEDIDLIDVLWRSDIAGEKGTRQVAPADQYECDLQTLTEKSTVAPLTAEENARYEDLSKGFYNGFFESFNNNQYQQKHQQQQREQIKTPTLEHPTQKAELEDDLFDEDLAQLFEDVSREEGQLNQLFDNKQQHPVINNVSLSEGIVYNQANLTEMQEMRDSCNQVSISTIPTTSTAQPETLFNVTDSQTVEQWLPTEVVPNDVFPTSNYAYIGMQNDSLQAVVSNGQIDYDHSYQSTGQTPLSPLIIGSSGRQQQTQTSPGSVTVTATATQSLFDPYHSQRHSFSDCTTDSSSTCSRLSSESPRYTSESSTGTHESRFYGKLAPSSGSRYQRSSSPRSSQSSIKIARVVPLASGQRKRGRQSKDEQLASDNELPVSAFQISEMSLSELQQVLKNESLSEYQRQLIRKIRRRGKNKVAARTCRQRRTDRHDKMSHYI
# [14] = THP-1 cell cytotoxicity, dose response, cytotoxicity control for non-replicating M. tuberculosis project (AID 489025); type: functional
# [15] = Vero E6 cell cytotoxicity, dose response, cytotoxicity control for non-replicating M. tuberculosis project, secondary assay (AID 492998); type: functional, VeroE6; conditions: Vero C1008
# [16] = cells; type: functional
# [17] = target: T4, Coagulation factor XII (Homo sapiens, UniProt P00748); type: functional;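 also: activated factor XIIa alpha cleaving a fluorogenic AMC peptide substrate; inhibitor potency from loss of enzyme activity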
# T4 sequence (P00748 whole entry): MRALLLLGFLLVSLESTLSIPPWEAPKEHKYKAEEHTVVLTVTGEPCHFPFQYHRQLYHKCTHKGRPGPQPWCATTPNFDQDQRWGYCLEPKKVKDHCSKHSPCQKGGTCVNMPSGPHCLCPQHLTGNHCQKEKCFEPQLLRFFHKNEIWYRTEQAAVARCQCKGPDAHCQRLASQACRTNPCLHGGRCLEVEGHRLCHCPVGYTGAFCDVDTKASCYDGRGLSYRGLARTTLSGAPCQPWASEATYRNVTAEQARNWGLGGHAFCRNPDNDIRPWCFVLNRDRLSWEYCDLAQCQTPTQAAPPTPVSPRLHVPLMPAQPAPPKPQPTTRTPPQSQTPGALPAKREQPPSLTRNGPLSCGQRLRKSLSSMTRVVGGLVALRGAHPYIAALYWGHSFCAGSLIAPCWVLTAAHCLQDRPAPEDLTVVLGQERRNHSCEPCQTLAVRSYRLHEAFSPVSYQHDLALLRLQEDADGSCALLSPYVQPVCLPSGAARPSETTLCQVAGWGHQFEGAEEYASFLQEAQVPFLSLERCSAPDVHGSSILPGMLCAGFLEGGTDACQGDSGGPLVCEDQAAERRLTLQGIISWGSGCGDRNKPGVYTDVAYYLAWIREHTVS
# [18] = target: Serine/threonine-protein phosphatase PP1-alpha catalytic subunit (Homo sapiens, UniProt P62136); assay: inhibition of protein phosphatase 1 activity – biochemical, fluorescence, dose response (AID 2403);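 also: phosphatase turnover of OMFP into fluorescent 3-O-methylfluorescein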
# [19] = target: T5, Serine/threonine-protein phosphatase (Homo sapiens, UniProt Q9BPW0); assay: Counterscreen for inhibitors of PP1: fluorescence-based biochemical high throughput dose response assay to identify inhibitors of Protein Phosphatase 5 (PP5). [Related pubchem assays: 2034 (Summary (PP5 inhibitors)), 1987 (PP5 inhibitors in singlate), 2235 (PP1 inhibitors in singlate)]
# T5 sequence (Q9BPW0 whole entry): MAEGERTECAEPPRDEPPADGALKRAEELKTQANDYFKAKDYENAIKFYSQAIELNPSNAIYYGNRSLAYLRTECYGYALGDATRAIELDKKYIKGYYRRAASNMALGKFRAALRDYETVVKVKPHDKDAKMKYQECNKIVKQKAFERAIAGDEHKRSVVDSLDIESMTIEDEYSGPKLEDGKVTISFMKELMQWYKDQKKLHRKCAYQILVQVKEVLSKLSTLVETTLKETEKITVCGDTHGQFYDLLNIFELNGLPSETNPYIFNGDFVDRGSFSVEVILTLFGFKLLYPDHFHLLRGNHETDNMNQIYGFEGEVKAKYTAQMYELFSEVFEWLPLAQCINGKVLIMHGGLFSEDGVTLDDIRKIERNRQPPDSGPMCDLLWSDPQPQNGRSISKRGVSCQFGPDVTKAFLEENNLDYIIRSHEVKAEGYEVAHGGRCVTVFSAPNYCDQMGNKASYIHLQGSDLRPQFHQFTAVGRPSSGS
# [20] = target: T6, Streptokinase A (Streptococcus pyogenes serotype M1, UniProt P10520); assay: viability-normalized secreted streptokinase activity reduction – plasminogen activation absorbance, OD405, dose response (AID 1914); type: functional, Streptococcus pyogenes M1 GAS;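 also: secreted streptokinase activity via plasminogen activation per viability signal from cell pellet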
# T6 sequence (P10520 whole entry): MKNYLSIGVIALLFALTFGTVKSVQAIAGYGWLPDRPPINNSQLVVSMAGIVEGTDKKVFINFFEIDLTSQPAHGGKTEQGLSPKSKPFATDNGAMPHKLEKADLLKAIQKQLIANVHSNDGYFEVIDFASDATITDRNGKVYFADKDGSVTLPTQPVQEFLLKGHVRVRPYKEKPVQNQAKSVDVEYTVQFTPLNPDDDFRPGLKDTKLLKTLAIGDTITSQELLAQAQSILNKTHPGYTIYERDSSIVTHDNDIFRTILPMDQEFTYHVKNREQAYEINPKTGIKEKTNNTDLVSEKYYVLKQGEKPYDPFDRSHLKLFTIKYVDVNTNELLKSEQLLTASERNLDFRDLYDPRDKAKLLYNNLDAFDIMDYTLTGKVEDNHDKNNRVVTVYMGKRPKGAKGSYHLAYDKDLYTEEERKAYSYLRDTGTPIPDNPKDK
# [21] = tested on: Streptococcus sp. 'group A'; assay: Streptococcus pyogenes SK(-)GAS viability under kanamycin – luminescence, BacTiterGlo, confirmation, counter-screen for streptokinase expression inhibitor project, dose response (AID 1900); type: functional, organism-based
# [22] = tested on: Streptococcus; assay: GAS UMAA2166 growth inhibition – luminescence, BacTiterGlo, counter-screen for streptokinase expression inhibitor project, dose response (AID 1915); type: functional, organism-based;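 also: potency for reduction of bacterial viability or growth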
# [23] = Luminescence Cell-Based Dose Retest to Confirm Inhibitors of Cancer Stem Cells. [Related pubchem assays (depositor defined):AID2717, AID2721]; type: functional; conditions: Homo sapiens
# [24] = target: G-protein coupled receptor 55 (Homo sapiens, UniProt Q9Y2T6); assay: inhibition of LPI-stimulated GPR55 beta-arrestin translocation – imaging, U2OS, beta-arrestin-GFP, LPI agonist, primary screen (AID 2013); type: functional;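 also: antagonist potency measured as reduced agonist-driven arrestin aggregation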
# 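For AC50 in this document: cells exposed to compound for roughly 70 hours or longer before luminescence read.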
smiles,measurement,setting,value
O=C(Nc1ccccc1-c1nnc(SCc2ccc(Cl)cc2)o1)c1ccccc1,EC50,[1],> 60 µM (not active)
same,EC50,[2],2.22 µM (active)
same,EC50,[3],6.46 µM (active)
CC1C2C=CC1C(c1c3ccc(=O)c(O)c-3oc3c(O)c(O)ccc13)C2C(=O)O (stereo not drawn),IC50,[4],5.58 µM (active)
same,IC50,[5],0.634 µM (active)
O=C(Cc1ccccc1)Nc1nc2ccccc2n1Cc1ccc(Cl)cc1,IC50,[6],> 20 µM (inactive)
same,IC50,[7],> 20 µM (inactive)
same,IC50,[8],> 20 µM (inactive)
same,IC50,[9],> 20 µM (inactive)
COc1ccc(C(=O)/C=C/c2cn(CC(O)CN3CCN(C)CC3)c3ccccc23)cc1OC (stereo not drawn),EC50,[10],12.3 µM (inactive)
Cn1nccc1NC(=O)Nc1cccc(Cl)c1Cl,EC50,[10],> 71.4 µM (inactive)
COC(=O)C1=C(C)NC(=O)/C1=C\N(C)C,IC50,[11],> 66 µM (inactive)
same,EC50,[10],> 71.5 µM (inactive)
same,IC50,[12],> 66 µM (inactive)
same,IC50,[13],> 100 µM (inactive)
COc1cccc(-c2nnc(NC(=O)c3cccc(F)c3)o2)c1,CC50,[14],13 µM (active)
same,CC50,[15],9 µM (active)
same,IC50,[16],3.03 µM (active)
CC1CC(NC(=O)C2C3CCC(O3)C2C(=O)O)CC(C)(C)C1 (stereo not drawn),IC50,[17],> 50 µM (inactive)
same,IC50,[18],2.85 µM (active)
same,IC50,[19],2.78 µM (active)
CCC(=O)Nc1nc2ccccc2n1Cc1ccccc1,IC50,[6],> 20 µM (inactive)
same,IC50,[7],> 20 µM (inactive)
same,IC50,[8],> 20 µM (inactive)
same,CC50,[14],> 40 µM (active)
same,IC50,[9],> 20 µM (inactive)
same,CC50,[15],> 20 µM (active)
same,IC50,[16],6.75 µM (active)
COc1ccccc1Sc1nc(-c2ccccn2)ncc1OC,EC50,[20],> 150 µM (not active)
same,EC50,[21],27.1 µM (active)
same,EC50,[22],> 150 µM (not active)
same,IC50,[18],7.52 µM (active)
same,IC50,[19],66.8 µM (not active)
CCC(c1nnnn1Cc1ccco1)N1CCN(c2cc(Cl)ccc2C)CC1 (stereo not drawn),EC50,[3],4.19 µM (active)
same,AC50,[23],3.44 µM (active)
N#C/C(=C\c1ccccc1[N+](=O)[O-])C(=O)NCc1ccccc1,IC50,[11],> 66 µM (inactive)
same,IC50,[12],> 66 µM (inactive)
same,IC50,[24],3.09 µM (active)
